# Reference: patent US20230255864A1, “NOVEL COMPOSITIONS COMBINING HEMP DERIVATIVES AND AT LEAST ONE PEPTIDE AND USE THEREOF” (FRANCE COSMEPHYL-LAB, priority 2020, published 2023)
# Assays:
# [1] = tested on: murine macrophages (RAW 267.4 cell line) stimulated with LPS from E. coli; assay: In vitro anti-inflammatory test: inhibition of NO production in LPS-stimulated murine macrophages (Griess reaction); type: cell-based
# Excerpt: Low-grade inflammation is strongly implicated in degenerative processes in human skin such as photoaging and atopy. The reduction of low-intensity inflammatory reactions by topical products may be necessary in the event of cutaneous aggression, to obtain optimal healing and restore the physiological balance of human skin. In order to identify new anti-inflammatory candidates, an in vitro anti-inflammatory test was developed with a murine cell line: the murine macrophage test RAW 267.4. This test was used to monitor the inhibitory effects of chemical compounds or natural extracts on the low-intensity inflammatory cascade leading to overproduction of nitrogen oxide (NO) in the endothelial wall of blood vessels.
# The study was carried out to evaluate the ability of cannabidiol, palmitoyl tripeptide-8 (active ingredient in Neutrazen™), and their mixture to inhibit the pro-inflammatory cascade leading to the production of NO in murine macrophages stimulated by liposaccharides (LPS).
# The in vitro anti-inflammatory test is based on the ability of murine macrophages to generate a strong inflammatory response when stimulated by antigens such as LPS. Immobilized murine macrophages (RAW 267.4 cell line) are stimulated with LPS from E. coli and exposed for 24 hours. At the end of the incubation period, the production of NO is evaluated indirectly by measuring the accumulation of nitrite/nitrate, stable final products of the oxidation of NO, in the culture medium using a method spectrophotometric based on the Griess reaction.
# (§1) MURINS RAW 267.4 Macrophage cell line (Sigma-Aldrich, No. P6110401, Lot. 091006), low number of passages (less than 50).
# (§2) Complete medium: DMEM with stabilized L-glutamine (Dulbecco's Minimum Essential Medium, PAN BIOTECH. Lot 974251) supplemented with Penicillin 100 IU/ml and streptomycin 100 μg/m1 (PAN BIOTECH, Lot 225614), and 10% inactivated calf serum (PAN BIOTECH, Lot P460518), pH 7.2, freshly prepared, stored for less than 3 weeks.
# (§3) Cannabidiol (CBD) is diluted in DMSO (10 mg/mL storage solution), and subjected to an ultrasonic bath for 20 minutes. The Neutrazen™ solution is diluted in PBS (Phosphate buffer saline, Sigma-Aldrich).
# The negative control: DMSO 1% The positive control: Dexamethasone (Sigma-Aldrich) 1-5-10-50-100 μM.
# (§4) RAW 267.4 murine macrophages were inoculated into 48-well tissue culture plates at a concentration of 1.10^5 cells/ml (200 μl/well) and incubated for 24 hours at 37° C. (5% CO2).
# (§5) At the end of the incubation period, the culture medium was replaced with 200 μl of medium containing the appropriate concentrations of the material to be tested, and the cells were incubated at 37° C. (5% CO2) for one hour.
# (§6) At the end of the incubation period, pro-inflammatory E. coli LPS was added to the cell cultures (1 μg/ml. Then the cells were incubated at 37° C. (5% CO2) for 24 hours.
# The amount of NO released was measured in the culture supernatant by the Griess reaction. 100 μl of the supernatants were transferred into the wells of a 96-well tissue culture plate, and modified Griess reagent (SIGMA-ALDRICH) were added to each well. After a period of 15 min at room temperature, the Optical Density (OD) of each well was read at a wavelength of 540 nm by an Infinite M200 Pro fluorescence-luminescence reader (TECAN).
# (§7) The concentrations of test material causing a 50% decrease in NO release (IC50 (NO release)) and a 50% decrease in cell viability (IC50 (cell viability)) respectively were calculated using TableCurve software Version 2.0.
# The anti-inflammatory ratio corresponds to the ratio between anti-inflammatory activity and toxicity. It is expressed as follows: […]
# Analysis of the anti-inflammatory activity and of the cell viability of the cannabidiol/palmitoyl tripeptide-8 (Neutrazen™) association in a mixture by isobologram analysis.
# [2] = tested on: RAW 267.4 murine macrophages; assay: Cell viability of murine macrophages (WST-1 mitochondrial respiration), in parallel with NO release; type: cell-based; conditions: Mus musculus, RAW267.4; non-linear regression of 3 series of experiments; positive control
# Protocol: as §1, §2, §3, §4, §5, §6
# In parallel with the evaluation of the release of NO, the cell viability was measured to validate the tests. Vital Stain Reagent WST-1 was used to measure cellular mitochondrial respiration. For this, the culture medium was decanted and 100 μl of WST-1 reagent ( 1/10 dilution) were added to each well. After an incubation period of 30 min at 37° C. (5% CO2), the Optical Density (OD) of each well was read at a wavelength of 450 nm by an Infinite M200 Pro fluorescence-luminescence reader (TECAN). The results obtained for the wells treated with the test material were compared with those of the untreated control wells (DMSO, 100% viability) and converted into percentage values.
# Inhibition of NO release and inhibition of cell viability were expressed as a percentage relative to the negative controls: […]
# as §7
# Analysis of the anti-inflammatory activity and of the cell viability of the cannabidiol/palmitoyl tripeptide-8 (Neutrazen™) association in a mixture by isobologram analysis. For each concentration of Neutrazen™ (0.01, 0.025, 0.05 and 0.1%), different concentrations of CBD are tested (0.01, 0.025, 0.05, 0.1, 0.25, 0.5, 1 and 2.5%) to determine both the production of NO and cell viability.
# The results obtained with the different mixtures of CBD and Neutrazen™ made it possible to calculate the pairs of concentrations corresponding to a 50% reduction in the production of NO and a 50% reduction in cell viability.
compound,measurement,setting,value
C[C@@H]1C[C@H]2[C@@H]3CCC4=CC(=O)C=C[C@]4(C)[C@@]3(F)[C@@H](O)C[C@]2(C)[C@@]1(O)C(=O)CO [Dexamethasone],IC50,"[1]; Mus musculus, RAW267.4, non-linear regression of 3 series of experiments, positive control, read-out: IC50-NO release",2.98 µM
same,Anti-inflammatory ratio,[1]; ratio between anti-inflammatory activity and toxicity (IC50 NO release and IC50 cell viability),64.65
same,IC50,[2],193 ± 4.25 µM
